Reference: the supplement of paper PMC4862054

Legend:
Test in all cases: drug sensitivity score (DSS), CellTox Green (DSS (AUC-based score)); higher = stronger drug effect (viability inhibition or cytotoxicity); extreme values may be limits of the assay
Conditions in all cases: incubation time: 72 h
MDA-MB-436 = tested on: MDA-MB-436
Outline: (§1)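 Compound was dispensed into 384-well plates at 5 concentrations in 10-fold steps spanning a 10,000-fold range chosen for each compound, and 20 µl of breast cancer cell suspension was added before 72 h of incubation. CellTox Green fluorescence was read at 485/520 nm, followed by CellTiter-Glo luminescence after 10 min at room temperature. Values on each plate were normalised to 0.1 % DMSO and a positive kill control. The drug sensitivity score came from the area under the fitted dose-response curve.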

MFM-223 = tested on: MFM-223
Outline: as §1

BT-474 = tested on: BT-474
Outline: as §1

MCF-10A = tested on: MCF-10A
Outline: as §1

CAL-51 = tested on: CAL-51
Outline: as §1

DU-4475 = tested on: DU-4475
Outline: as §1

HCC1143 = tested on: HCC1143
Outline: as §1

BT-549 = tested on: BT-549
Outline: as §1

MDA-MB-468 = tested on: MDA-MB-468
Outline: as §1

CAL-120 = tested on: CAL-120
Outline: as §1

HDQ-P1 = tested on: HDQ-P1
Outline: as §1

CAL-148 = tested on: CAL-148
Outline: as §1

HCC1599 = tested on: HCC1599
Outline: as §1

MDA-MB-453 = tested on: MDA-MB-453
Outline: as §1

CAL-85-1 = tested on: CAL-85-1
Outline: as §1

Clc1ccc(C(c2ccccc2Cl)C(Cl)Cl)cc1 (stereo not given) [Mitotane]
drug sensitivity score (MDA-MB-436): 0
drug sensitivity score (MFM-223): 0
drug sensitivity score (BT-474): 0
drug sensitivity score (MCF-10A): 0
drug sensitivity score (CAL-51): 0
drug sensitivity score (DU-4475): 0
drug sensitivity score (HCC1143): 2.11
drug sensitivity score (BT-549): 0
drug sensitivity score (MDA-MB-468): 0
drug sensitivity score (CAL-120): 0
drug sensitivity score (HDQ-P1): 0
drug sensitivity score (CAL-148): 0
drug sensitivity score (HCC1599): 0
drug sensitivity score (MDA-MB-453): 0
drug sensitivity score (CAL-85-1): 0

CCN1CCN(c2ccc(Nc3cc(N(C)C(=O)Nc4c(Cl)c(OC)cc(OC)c4Cl)ncn3)cc2)CC1 [NVP-BGJ398]
drug sensitivity score (MDA-MB-436): 0
drug sensitivity score (MFM-223): 0
drug sensitivity score (BT-474): 0
drug sensitivity score (MCF-10A): 0
drug sensitivity score (CAL-51): 0
drug sensitivity score (DU-4475): 0
drug sensitivity score (HCC1143): 0
drug sensitivity score (BT-549): 0
drug sensitivity score (MDA-MB-468): 0
drug sensitivity score (CAL-120): 0.0505
drug sensitivity score (HDQ-P1): 0
drug sensitivity score (CAL-148): 0
drug sensitivity score (HCC1599): 0
drug sensitivity score (MDA-MB-453): 0
drug sensitivity score (CAL-85-1): 0

COc1cccc2cc(-c3nc([C@H]4CC[C@H](C(=O)O)CC4)n4ncnc(N)c34)[nH]c12 [OSI-027]
drug sensitivity score (MDA-MB-436): 0
drug sensitivity score (MFM-223): 0
drug sensitivity score (BT-474): 0
drug sensitivity score (MCF-10A): 0
drug sensitivity score (CAL-51): 0
drug sensitivity score (DU-4475): 0
drug sensitivity score (HCC1143): 0
drug sensitivity score (BT-549): 0
drug sensitivity score (MDA-MB-468): 0
drug sensitivity score (CAL-120): 0
drug sensitivity score (HDQ-P1): 0
drug sensitivity score (CAL-148): 0
drug sensitivity score (HCC1599): 0
drug sensitivity score (MDA-MB-453): 0
drug sensitivity score (CAL-85-1): 0.0118

OC[C@H]1O[C@@H](n2cnc3c2N=CNC[C@H]3O)C[C@@H]1O [Pentostatin]
drug sensitivity score (MDA-MB-436): 0
drug sensitivity score (MFM-223): 0
drug sensitivity score (BT-474): 0
drug sensitivity score (MCF-10A): 0
drug sensitivity score (CAL-51): 0
drug sensitivity score (DU-4475): 0
drug sensitivity score (HCC1143): 0
drug sensitivity score (BT-549): 0
drug sensitivity score (MDA-MB-468): 0
drug sensitivity score (CAL-120): 0
drug sensitivity score (HDQ-P1): 0
drug sensitivity score (CAL-148): 0
drug sensitivity score (HCC1599): 0
drug sensitivity score (MDA-MB-453): 0
drug sensitivity score (CAL-85-1): 0

N#CC[C@H](C1CCCC1)n1cc(-c2ncnc3[nH]ccc23)cn1 [Ruxolitinib]
drug sensitivity score (MDA-MB-436): 0
drug sensitivity score (MFM-223): 0
drug sensitivity score (BT-474): 0
drug sensitivity score (MCF-10A): 0
drug sensitivity score (CAL-51): 0
drug sensitivity score (DU-4475): 0
drug sensitivity score (HCC1143): 0
drug sensitivity score (BT-549): 0
drug sensitivity score (MDA-MB-468): 0
drug sensitivity score (CAL-120): 0
drug sensitivity score (HDQ-P1): 4.94
drug sensitivity score (CAL-148): 0
drug sensitivity score (HCC1599): 0
drug sensitivity score (MDA-MB-453): 0
drug sensitivity score (CAL-85-1): 0

C=CC[C@@H]1/C=C(\C)C[C@H](C)C[C@H](OC)[C@H]2O[C@@](O)(C(=O)C(=O)N3CCCC[C@H]3C(=O)O[C@H](/C(C)=C/[C@@H]3CC[C@@H](O)[C@H](OC)C3)[C@H](C)[C@@H](O)CC1=O)[C@H](C)C[C@@H]2OC [Tacrolimus]
drug sensitivity score (MDA-MB-436): 0
drug sensitivity score (MFM-223): 0
drug sensitivity score (BT-474): 0
drug sensitivity score (MCF-10A): 0.439
drug sensitivity score (CAL-51): 0
drug sensitivity score (DU-4475): 0
drug sensitivity score (HCC1143): 0
drug sensitivity score (BT-549): 0
drug sensitivity score (MDA-MB-468): 0
drug sensitivity score (CAL-120): 0
drug sensitivity score (HDQ-P1): 0
drug sensitivity score (CAL-148): 0
drug sensitivity score (HCC1599): 0
drug sensitivity score (MDA-MB-453): 0
drug sensitivity score (CAL-85-1): 0

C=CCNC1=C2C[C@@H](C)C[C@H](OC)[C@H](O)[C@@H](C)/C=C(\C)[C@H](OC(N)=O)[C@@H](OC)/C=C\C=C(/C)C(=O)NC(=CC1=O)C2=O [Tanespimycin]
drug sensitivity score (MDA-MB-436): 0
drug sensitivity score (MFM-223): 0
drug sensitivity score (BT-474): 7.84
drug sensitivity score (MCF-10A): 15.9
drug sensitivity score (CAL-51): 10.9
drug sensitivity score (DU-4475): 7.07
drug sensitivity score (HCC1143): 2.55
drug sensitivity score (BT-549): 0
drug sensitivity score (MDA-MB-468): 0
drug sensitivity score (CAL-120): 0.533
drug sensitivity score (HDQ-P1): 10.1
drug sensitivity score (CAL-148): 15.9
drug sensitivity score (HCC1599): 0
drug sensitivity score (MDA-MB-453): 0
drug sensitivity score (CAL-85-1): 7.62

CO[C@H]1C[C@@H]2CC[C@@H](C)[C@@](O)(O2)C(=O)C(=O)N2CCCC[C@H]2C(=O)O[C@H]([C@H](C)C[C@@H]2CC[C@@H](OC(=O)C(C)(CO)CO)[C@H](OC)C2)CC(=O)[C@H](C)/C=C(\C)[C@@H](O)[C@@H](OC)C(=O)[C@H](C)C[C@H](C)/C=C/C=C/C=C/1C [Temsirolimus]
drug sensitivity score (MDA-MB-436): 0
drug sensitivity score (MFM-223): 0
drug sensitivity score (BT-474): 0
drug sensitivity score (MCF-10A): 0
drug sensitivity score (CAL-51): 0
drug sensitivity score (DU-4475): 0
drug sensitivity score (HCC1143): 0
drug sensitivity score (BT-549): 0
drug sensitivity score (MDA-MB-468): 0
drug sensitivity score (CAL-120): 0
drug sensitivity score (HDQ-P1): 0
drug sensitivity score (CAL-148): 0
drug sensitivity score (HCC1599): 0
drug sensitivity score (MDA-MB-453): 0
drug sensitivity score (CAL-85-1): 0

O=C(c1ccc(C(=O)N2CCC(N3CCCC3)CC2)c(Nc2ccccc2)c1)N1CCC(N2CCCC2)CC1 [UNC1215]
drug sensitivity score (MDA-MB-436): 0
drug sensitivity score (MFM-223): 0
drug sensitivity score (BT-474): 0
drug sensitivity score (MCF-10A): 0
drug sensitivity score (CAL-51): 0
drug sensitivity score (DU-4475): 0
drug sensitivity score (HCC1143): 0.868
drug sensitivity score (BT-549): 0
drug sensitivity score (MDA-MB-468): 0
drug sensitivity score (CAL-120): 0
drug sensitivity score (HDQ-P1): 0
drug sensitivity score (CAL-148): 0
drug sensitivity score (HCC1599): 0
drug sensitivity score (MDA-MB-453): 0
drug sensitivity score (CAL-85-1): 0

C[C@]1(c2nc3c(C(N)=O)cccc3[nH]2)CCCN1 [Veliparib]
drug sensitivity score (MDA-MB-436): 0
drug sensitivity score (MFM-223): 0
drug sensitivity score (BT-474): 0
drug sensitivity score (MCF-10A): 0
drug sensitivity score (CAL-51): 0
drug sensitivity score (DU-4475): 0
drug sensitivity score (HCC1143): 0
drug sensitivity score (BT-549): 0
drug sensitivity score (MDA-MB-468): 0
drug sensitivity score (CAL-120): 0
drug sensitivity score (HDQ-P1): 0
drug sensitivity score (CAL-148): 2.57
drug sensitivity score (HCC1599): 0
drug sensitivity score (MDA-MB-453): 0
drug sensitivity score (CAL-85-1): 0.454

CC[C@]1(O)C[C@@H]2CN(CCc3c([nH]c4ccccc34)[C@@](C(=O)OC)(c3cc4c(cc3OC)N(C)[C@H]3[C@@](O)(C(=O)OC)[C@H](OC(C)=O)[C@]5(CC)C=CCN6CC[C@]43[C@@H]65)C2)C1 [Vinblastine]
drug sensitivity score (MDA-MB-436): 0
drug sensitivity score (MFM-223): 12.2
drug sensitivity score (BT-474): 8.39
drug sensitivity score (MCF-10A): 12.5
drug sensitivity score (CAL-51): 22.3
drug sensitivity score (DU-4475): 0
drug sensitivity score (HCC1143): 9.2
drug sensitivity score (BT-549): 10.2
drug sensitivity score (MDA-MB-468): 12.8
drug sensitivity score (CAL-120): 3.49
drug sensitivity score (HDQ-P1): 0
drug sensitivity score (CAL-148): 0
drug sensitivity score (HCC1599): 2.86
drug sensitivity score (MDA-MB-453): 0
drug sensitivity score (CAL-85-1): 6.07

CS(=O)(=O)c1ccc(C(=O)Nc2ccc(Cl)c(-c3ccccn3)c2)c(Cl)c1 [Vismodegib]
drug sensitivity score (MDA-MB-436): 0
drug sensitivity score (MFM-223): 0
drug sensitivity score (BT-474): 0
drug sensitivity score (MCF-10A): 0
drug sensitivity score (CAL-51): 0
drug sensitivity score (DU-4475): 0
drug sensitivity score (HCC1143): 0
drug sensitivity score (BT-549): 0
drug sensitivity score (MDA-MB-468): 0
drug sensitivity score (CAL-120): 0
drug sensitivity score (HDQ-P1): 0
drug sensitivity score (CAL-148): 0
drug sensitivity score (HCC1599): 0
drug sensitivity score (MDA-MB-453): 0
drug sensitivity score (CAL-85-1): 0
